A short description of data set [1]: Thioflavin T (ThT) fibrillation assay for physical stability. In kind it is physicochemical. Particulars: 250 μM in 10 mM HEPES buffer, pH 7.5, 37° C., shaking 960 rpm. An outline of the steps: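 Fibrillation was followed by ThT (1 μM) fluorescence every 20 min, 444/485 nm, for 250 μM peptide in 10 mM HEPES pH 7.5 shaken at 960 rpm, 37° C. Lag time (t0−2τ) and apparent rate constant (1/τ) come from a sigmoidal fit. Recovery is % of initial concentration remaining soluble after centrifugation and filtration (RP-HPLC).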

Data set [2] in a line: Chemical stability assessment by RP-UPLC. In kind it is physicochemical. Particulars: 333 μM, 8 mM phosphate buffer pH 7.3, 37° C. vs 5° C. On the procedure: The purpose of this assay was to assess the chemical stability of the glucagon derivatives of the invention in aqueous solutions.
Chemical stability of glucagon derivatives or analogues was investigated by RP-UPLC separation and UV detection. Lyophilized samples were dissolved in a 8 mM Phosphate buffer pH 8.6, followed by adjustment to pH 7.3.using HCl to a final concentration of 333 μM. Samples were incubated for 14 days at 5° C. and 37° C. followed by RP-UPLC analysis. Purity was defined as the area percentage of the main peak in relation to the total area of all integrated peaks in each chromatogram. Purity loss after 14 days at 37° C. was determined as the difference in purity between the samples incubated at 5° C. and 37° C., divided by the purity of the sample after incubation for 14 days at 5° C.
RP-UPLC analysis was performed using a Waters BEH130 2.1 mm×150 mm, 1.7 μm column operated at 50° C. and a flow rate of 0.4 mL/min using a mobile phase system consisting of A: 0.05% TFA in MQ-water B: 0.05% TFA in Acetonitrile. UV-detection was performed at 215 nm. The typical gradient profile used for most of the samples is shown below.
For some individual derivatives or analogues eluting at substantially different retention times compared with the majority of derivatives or analogues, some adjustments to the gradient profile were made to better enable purity assessment comparison across samples. The data confirmed the improved chemical stability of the glucagon derivatives of this invention.

Data set [3] has as its target T1, human glucagon receptor (Homo sapiens, UniProt P47871).
T1 construct: expressed in transfected cells; host or cells: BHK cells (parent BHK570, CRE luciferase clone BHK/KZ10-20-48), clone pLJ6'-4-25
Briefly: Glucagon receptor potency, CRE luciferase reporter gene assay in BHK cells. Format: cell-based. Particulars: BHK cells expressing human glucagon receptor, read-out: EC50 GlucR. On the procedure:
The purpose of this example was to test the potency, of the glucagon derivatives of the invention, in vitro. The in vitro potency is the measure of human GLP-1 receptor or glucagon receptor activation, respectively, in a whole cell assay.
In vitro potency was determined by measuring the response of human GLP-1 or glucagon receptor, respectively, in a reporter gene assay. The assay was performed in a stably transfected BHK cell line that expresses either the human GLP-1 receptor or the human glucagon receptor and contains the DNA for the cAMP response element (CRE) coupled to a promoter and the gene for firefly luciferase (CRE luciferase). […] When assay incubation was completed, the luciferase substrate (luciferin) was added and the enzyme converted luciferin to oxyluciferin and produces bioluminescence. The luminescence was measured as the readout for the assay.
The cells used in this assay (clone pLJ6′-4-25) were BHK cells with BHK570 as a parent cell line expressing the CRE luciferase gene (clone BHK/KZ10-20-48) and were established by further transfection with the human glucagon receptor (clone pLJ6′ in pHZ-1 vector).
The cells were cultured at 5% CO2 in DMEM medium with 10% FBS, 1×GlutaMAX, 1 mg/ml G418, 240 nM MTX (methotrexate) and 1% pen/strep (penicillin/streptomycin). They were aliquoted and stored in liquid nitrogen. Before each assay, an aliquot was taken up and washed three times in PBS before being suspended at the desired concentration in assay medium. For 96-well plates the suspension was made to give a final concentration of 5×10EE3 cells/well.
The following chemicals were used in the assay: Pluronic F-68 (10%) (Gibco 2404), ovalbumin (Sigma A5503), DMEM w/o phenol red (Gibco 11880-028), 1 M Hepes (Gibco 15630), Glutamax 100× (Gibco 35050) and steadylite plus (PerkinElmer 6016757).
Assay Medium consisted of DMEM w/o phenol red, 10 mM Hepes, 1× GlutaMAX, 2% Ovalbumin and 0.2% Pluronic F-68.
Cell stocks were thawed in a 37° C. water bath. Cells were washed three times in PBS. The cells were counted and adjusted to 5×10EE3 cells/50 μl (1×10EE5 cells/ml) in Assay Medium. A 50 μl aliquot of cells was transferred to each well in the assay plate.
Stocks of the test compounds and reference compounds were diluted to a concentration of […] in Assay Medium. Compounds were diluted 10-fold to give the following concentrations: 2×10EE-6 M, 2×10EE-7 M, 2×10EE-8 M; 2×10EE-9 M, 2×10EE-10 M, 2×10EE-11 M, 2×10EE-12 M and 2×10EE-13 M. For each compound a blank assay medium control was also included.
A 50 μl aliquot of compound or blank was transferred from the dilution plate to the assay plate. Compounds were tested at the following final concentrations: 1×10EE-6 M, 1×10EE-7 M, 1×10EE-8 M; 1×10EE-9 M, 1×10EE-10 M, 1×10EE-11 M and 1×10EE-12 M and 1×10EE-13 M.
The assay plate was incubated for 3 h in a 5% CO2 incubator at 37° C. The assay plate was removed from the incubator and allowed to stand at room temperature for 15 min. A 100 μl aliquot of steadylite plus reagent was added to each well of the assay plate (reagent is light sensitive). Each assay plate was covered with aluminum foil to protect it from light and shaken for 30 min at room temperature. Each assay plate was read in a Perkin Elmer TopCount NXT instrument.
The data from the TopCount instrument was transferred to GraphPad Prism software. The software performed a non-linear regression (log(agonist) vs response-Variable slope (four parameter)). EC50 values were calculated by the software and reported in pM.
Background: Reporter assays use an easily measured gene product as a stand-in for the process of interest.

This note sets out measurements from patent US9474790B2, “Stable, protracted GLP-1/glucagon receptor co-agonists for medical use” (Novo Nordisk A/S, priority 2013, dated 2016).

Each structure is given as a SMILES string. pEC50: −log10 of the molar value. Numbered stars: 1 amine (or outer) side, 2 acyl side, 3 side chain; on linkers, the order of the positions; unused ones are H or OH. Square brackets hold non-standard residues; d marks the D form. Side chains are listed from the residue outwards. Peptide text beside a SMILES is read from it. * marks the point of attachment. C18 diacid = O=C(O)CCCCCCCCCCCCCCCCC(=O)*; γGlu = O=C(O)[C@H](CCC(=O)[*:2])N[*:1]; AEEA = NCCOCCOCC(=O)O; Aib = CC(C)(N)C(=O)O

Usually pEC50 stands for the EC50 on a negative log10 scale, so that one unit is a factor of ten.

T1 sequence (P47871 26-477): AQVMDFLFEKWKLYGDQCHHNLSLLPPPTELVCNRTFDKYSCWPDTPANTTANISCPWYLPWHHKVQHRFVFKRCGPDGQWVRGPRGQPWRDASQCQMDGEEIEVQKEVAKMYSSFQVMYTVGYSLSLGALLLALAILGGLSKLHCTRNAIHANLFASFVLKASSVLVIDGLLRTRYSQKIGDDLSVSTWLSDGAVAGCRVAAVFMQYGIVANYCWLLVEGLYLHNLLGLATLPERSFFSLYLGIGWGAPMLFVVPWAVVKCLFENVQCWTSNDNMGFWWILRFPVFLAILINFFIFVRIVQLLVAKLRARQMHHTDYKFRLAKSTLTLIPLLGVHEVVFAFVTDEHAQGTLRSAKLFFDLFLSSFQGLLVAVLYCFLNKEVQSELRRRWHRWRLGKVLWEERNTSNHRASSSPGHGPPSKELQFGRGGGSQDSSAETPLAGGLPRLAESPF

In the case of `CC(C)C[C@H](NC(=O)[C@H](CC(C)C)NC(=O)[C@H](Cc1c[nH]c2ccccc12)NC(=O)[C@H](CCC(N)=O)NC(=O)[C@@H](NC(=O)[C@H](Cc1ccccc1)NC(=O)[C@H](CCC(=O)O)NC(=O)[C@H](CCCNC(=N)N)NC(=O)[C@H](C)NC(=O)[C@H](CCCNC(=N)N)NC(=O)[C@H](CCCNC(=N)N)NC(=O)[C@H](CC(C)C)NC(=O)[C@H](CC(=O)O)NC(=O)[C@H](CC(C)C)NC(=O)[C@H](Cc1ccc(O)cc1)NC(=O)[C@H](CCCCN)NC(=O)[C@H](CO)NC(=O)[C@H](CC(C)C)NC(=O)[C@H](CC(=O)O)NC(=O)[C@H](CO)NC(=O)[C@@H](NC(=O)[C@H](Cc1ccccc1)NC(=O)[C@@H](NC(=O)CNC(=O)[C@H](CCC(N)=O)NC(=O)C(C)(C)NC(=O)[C@@H](N)Cc1c[nH]cn1)[C@@H](C)O)[C@@H](C)O)C(C)C)C(=O)N[C@@H](CC(N)=O)C(=O)N[C@@H](CCCCNC(=O)CC[C@H](NC(=O)CC[C@H](NC(=O)COCCOCCNC(=O)CC[C@H](NC(=O)CCCCCCCCCCCCCCCCC(=O)O)C(=O)O)C(=O)O)C(=O)O)C(N)=O` [Example 38, N^ε29-[(4S)-4-carboxy-4-[[(4S)-4-carboxy-4-[[2-[2-[2-[[(4S)-4-carboxy-4-(17-carboxyheptadecanoylamino)butanoyl]amino]ethoxy]ethoxy]acetyl]amino]butanoyl]amino]butanoyl]-[Aib2,Leu10,Leu16,Arg20,Glu21,Leu27,Lys29]-Glucagon amide] (H-H[Aib]QGTFTSDLSKYLDLRRAREFVQWLLNK([γGlu-γGlu-AEEA-γGlu-C18 diacid])-NH2; N-terminus assumed), the THT assay Lag time (Ex. 76) in data set [1] is 45 h. Moreover, in data set [2], the “Purity loss; 14 days at 37° C.” value was 2%. In addition, the negative logarithm of the EC50 (pEC50) in data set [3] was 10.62.
